Key:
buckwheat, wild = assay: Test D postemergence; assay type: in vivo, Polygonum convolvulus; details: scale 0 to 100
Source text: (§1) Seeds of plant species selected from bluegrass (annual bluegrass, Poa annua), blackgrass (Alopecurus myosuroides), canarygrass (Phalaris minor), chickweed (common chickweed, Stellaria media), galium (catchweed bedstraw, Galium aparine), bromegrass, down (downy bromegrass, Bromus tectorum), Russian thistle (Salsola kali), field poppy (Papaver rhoeas), field violet (Viola arvensis), foxtail, green (green foxtail, Setaria viridis), deadnettle (henbit deadnettle, Lamium amplexicaule), ryegrass, Ital. (Italian ryegrass, Lolium multiflorum), kochia (Kochia scoparia), lambsquarters (Chenopodium album), oilseed rape (Brassica napus), pigweed (Amaranthus retroflexus), chamomile (scentless chamomile, Matricaria inodora), speedwell (bird's-eye speedwell, Veronica persica), barley, spring (spring barley, Hordeum vulgare), wheat, spring (spring wheat, Triticum aestivum), buckwheat, wild (wild buckwheat, Polygonum convolvulus), wild mustard (Sinapis arvensis), oat, wild (wild oat, Avena fatua), radish, wild (wild radish, Raphanus raphanistrum), […]), barley, winter (winter barley, Hordeum vulgare), and wheat, winter (winter wheat, Triticum aestivum) were planted into a silt loam soil and treated preemergence with test chemicals formulated in a non-phytotoxic solvent mixture which included a surfactant. At the same time, these species were planted in pots containing Sunshine Redi-Earth® planting medium comprising spaghnum peat moss, vermiculite, starter nutrients and dolomitic limestone and treated with postemergence applications of the test chemicals formulated in the same manner. Plants ranged in height from 2 to 18 cm (1- to 4-leaf stage). Treated plants and controls were maintained in a controlled growth environment for 14 to 21 d after which time all species were compared to controls and visually evaluated. […] A dash (-) response means no test result.

soybean = assay: Test C preemergence; assay type: in vivo, Glycine max; details: for Soybean plant response rating (0 to 100): Preemergence, visual rating after 13 to 15 d; for Plant response rating (scale of 0 to 100 where 0 is no effect and 100 is complete control): Soybean, preemergence, 250 g ai/ha
Source text: Seeds of plant species selected from blackgrass (Alopecurus myosuroides), ryegrass, Italian (Italian ryegrass, Lolium multiflorum), wheat (winter wheat, Triticum aestivum), galium (catchweed bedstraw, Galium aparine), corn (Zea mays), crabgrass, large (large crabgrass, Digitaria sanguinalis), foxtail, giant, (giant foxtail, Setaria faberii), johnsongrass (Sorghum halepense), lambsquarters (Chenopodium album), morningglory (Ipomoea coccinea), nutsedge, yellow (yellow nutsedge, Cyperus esculentus), pigweed (Amaranthus retroflexus), ragweed (common ragweed, Ambrosia elatior), soybean (Glycine max), barnyardgrass (Echinochloa crus-galli), oilseed rape (Brassica napus), waterhemp (common waterhemp, Amaranthus rudis), and velvetleaf (Abutilon theophrasti) were planted into a blend of loam soil and sand and treated preemergence with test chemicals formulated in a non-phytotoxic solvent mixture which included a surfactant. At the same time, plants selected from these crop and weed species and also chickweed (common chickweed, Stellaria media), oat, wild (wild oat, Avena fatua), and kochia (Kochia scoparia), were planted in pots containing Sunshine Redi-Earth® planting medium comprising spaghnum peat moss, vermiculite, starter nutrients and dolomitic limestone and treated with postemergence applications of test chemicals formulated in the same manner. Plants ranged in height from 2 to 18 cm (1- to 4-leaf stage) for postemergence treatments. […] A dash (-) response means no test result.

galium [1] = assay: Test A postemergence; assay type: in vivo, Galium aparine; details: 0 to 100 scale (0 no effect, 100 complete control), approx. 10 d
Method in brief: (§2)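 Weed and crop species in loam–sand blend sprayed preemergence on soil or postemergence at 2–10 cm, one- to two-leaf stage, with chemicals in surfactant-containing solvent. Injury rated visually after ~10 d in greenhouse versus untreated controls on a 0–100 scale (100 = complete control).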

galium [2] = assay: Test D postemergence; assay type: in vivo, Galium aparine; details: scale 0 to 100
Source text: as §1

ryegrass, Italian = assay: Test A preemergence; assay type: in vivo, Lolium multiflorum; details: 0 to 100 scale (0 no effect, 100 complete control)
Method in brief: as §2

barley, spring = assay: Test D postemergence; assay type: in vivo, Hordeum vulgare; details: scale 0 to 100
Source text: as §1

barley, winter = assay: Test D postemergence; assay type: in vivo, Hordeum vulgare; details: scale 0 to 100
Source text: as §1

bromegrass, down = assay: Test D preemergence; assay type: in vivo, Bromus tectorum; details: for Plant response rating (0 to 100), Bromegrass, Down: 16 g ai/ha, 0 is no effect, 100 is complete control; for Plant response rating: Bromegrass, Down: scale 0 to 100
Source text: as §1

radish, wild = assay: Test D postemergence; assay type: in vivo, Raphanus raphanistrum; details: scale 0 to 100
Source text: as §1

deadnettle = assay: Test D postemergence; assay type: in vivo, Lamium amplexicaule; details: scale 0 to 100
Source text: as §1

Row | Structure (SMILES) | Plant response rating: Buckwheat, Wild (buckwheat, wild; 16 g ai/ha) | Plant response rating: Buckwheat, Wild (buckwheat, wild; 31 g ai/ha) | Plant response rating: Buckwheat, Wild (buckwheat, wild; 62 g ai/ha) | Plant response rating: Buckwheat, Wild (buckwheat, wild; 125 g ai/ha) | Soybean plant response rating (0 to 100) (soybean; 31 g ai/ha) | Soybean plant response rating (0 to 100) (soybean; 62 g ai/ha) | Plant response rating (scale of 0 to 100 where 0 is no effect and 100 is complete control) (soybean) | Plant response rating, Galium (galium [1]; 125 g ai/ha) | Plant response rating, Galium (galium [1]; 500 g ai/ha) | Plant response rating: Galium (galium [2]; 16 g ai/ha) | Plant response rating: Galium (galium [2]; 31 g ai/ha) | Plant response rating: Galium (galium [2]; 62 g ai/ha) | Plant response rating: Galium (galium [2]; 125 g ai/ha) | Plant response rating, Ryegrass, Italian (ryegrass, Italian; 125 g ai/ha) | Plant response rating, Ryegrass, Italian (ryegrass, Italian; 500 g ai/ha, approx. 10 d) | Plant response rating: Barley, Spring (barley, spring; 16 g ai/ha) | Plant response rating: Barley, Spring (barley, spring; 31 g ai/ha) | Plant response rating: Barley, Spring (barley, spring; 62 g ai/ha) | Plant response rating: Barley, Spring (barley, spring; 125 g ai/ha) | Plant response rating: Barley, Winter (barley, winter; 16 g ai/ha) | also measured
1 | FC(F)(F)COc1nc(-c2ccccc2)nn1Cc1ccnc(C(F)(F)F)c1 [Compound 24] | 50 | 55 | 60 | 70 | 0 | 5 | 35 | 70 | 90 | 55 | 70 | 65 | 75 | 70 | 80 | 20 | 25 | 30 | 35 | 15 | Plant response rating: Barley, Winter (barley, winter; 31 g ai/ha): 15; Plant response rating: Barley, Winter (barley, winter; 62 g ai/ha): 25; Plant response rating: Barley, Winter (barley, winter; 125 g ai/ha): 25; Plant response rating (0 to 100), Bromegrass, Down (bromegrass, down): 25; Plant response rating: Bromegrass, Down (bromegrass, down; 31 g ai/ha): 40; Plant response rating: Bromegrass, Down (bromegrass, down; 62 g ai/ha): 35; Plant response rating: Bromegrass, Down (bromegrass, down; 125 g ai/ha): 40; Plant response rating: Radish, Wild (radish, wild; 16 g ai/ha): 70; Plant response rating: Radish, Wild (radish, wild; 31 g ai/ha): 95; Plant response rating: Radish, Wild (radish, wild; 62 g ai/ha): 95; Plant response rating: Radish, Wild (radish, wild; 125 g ai/ha): 95; Plant response rating: Deadnettle (deadnettle; 16 g ai/ha): 40; Plant response rating: Deadnettle (deadnettle; 31 g ai/ha): 60; Plant response rating: Deadnettle (deadnettle; 62 g ai/ha): 70; Plant response rating: Deadnettle (deadnettle; 125 g ai/ha): 85
2 | CCOc1nc(-c2ccccc2)nn1Cc1ccnc(C(F)(F)F)c1 [Compound 27] | 65 | 80 | 70 | 85 | 35 | 40 | 75 | 80 | 90 | 70 | 75 | 100 | 100 | 90 | 100 | 25 | 25 | 35 | 35 | 15 | Plant response rating: Barley, Winter (barley, winter; 31 g ai/ha): 25; Plant response rating: Barley, Winter (barley, winter; 62 g ai/ha): 30; Plant response rating: Barley, Winter (barley, winter; 125 g ai/ha): 35; Plant response rating (0 to 100), Bromegrass, Down (bromegrass, down): 0; Plant response rating: Bromegrass, Down (bromegrass, down; 31 g ai/ha): 20; Plant response rating: Bromegrass, Down (bromegrass, down; 62 g ai/ha): 65; Plant response rating: Bromegrass, Down (bromegrass, down; 125 g ai/ha): 70; Plant response rating: Radish, Wild (radish, wild; 16 g ai/ha): 85; Plant response rating: Radish, Wild (radish, wild; 31 g ai/ha): 90; Plant response rating: Radish, Wild (radish, wild; 62 g ai/ha): 100; Plant response rating: Radish, Wild (radish, wild; 125 g ai/ha): 100; Plant response rating: Deadnettle (deadnettle; 16 g ai/ha): 55; Plant response rating: Deadnettle (deadnettle; 31 g ai/ha): 75; Plant response rating: Deadnettle (deadnettle; 62 g ai/ha): 95; Plant response rating: Deadnettle (deadnettle; 125 g ai/ha): 100
